Target: T1, Gag-Pol polyprotein [588-1027]/[588-1147] (Human immunodeficiency virus 1, UniProt P04585)
T1 construct: 588-1027; 588-1147
Assay: HIV-1 RT Assay
Settings: pH 7.9
Source text: The IC50 of reverse transcriptase is the concentration that inhibits 50% of recombinant HIV-1 RT RNA-directed DNA polymerase activity in vitro.

Compound | IC50 [µM]
CCOC(=O)N1CCC(=C(c2cc(Cl)c(O)c(C(=O)O)c2)c2cc(Cl)c(O)c(C(=O)O)c2)CC1 [5-[(3-carboxy-5-chloro-4-hydroxyphenyl)[1-(ethoxycarbonyl)piperidin-4-ylidene]methyl]-3-chloro-2-hydroxybenzoic acid] | > 100
CCOC(=O)N1CCC(C(c2cc(C)c(OC)c(C(=O)OC)c2)c2cc(C)c(OC)c(C(=O)OC)c2)CC1 [Ethyl 4 - (4,4 - dimethoxy - 3,3 - di(methoxycarbonyl)-5,5-dimethyl-diphenylmethyl)piperidinecarboxylate] | > 100
CCOC(=O)N1CCC(=C(c2cc(Cl)c(OC)c(C(=O)O)c2)c2cc(Cl)c(OC)c(C(=O)O)c2)CC1 [Ethyl 4-(3,3-dicarboxy-5,5-dichloro-4,4-dimethoxydiphenylmethylene)piperidinecarboxylate] | > 100
CCOC(=O)N1CCC(=C(c2cc(Cl)c(OC)c(C(=O)OC)c2)c2cc(Cl)c(OC)c(C(=O)OC)c2)CC1 [Ethyl 4-(3,3-dichloro-4,4-dimethoxy-5,5-di(methoxycarbonyl)-diphenylmethylene)piperidinecarboxylate] | > 100
COC(=O)c1cc(C(c2cc(C)c(OC)c(C(=O)OC)c2)C2CCN(C(=O)OC)CC2)cc(C)c1OC [Methyl 4 - (4,4 - dimethoxy - 3,3 - di(methoxycarbonyl)-5,5-dimethyl-diphenylmethyl)piperidinecarboxylate] | > 100
COC(=O)N1CCC(=C(c2cc(Cl)c(OC)c(C(=O)O)c2)c2cc(Cl)c(OC)c(C(=O)O)c2)CC1 [Methyl 4-(3,3-dicarboxy-5,5-dichloro-4,4-dimethoxydiphenylmethylene)piperidinecarboxylate] | > 100
COC(=O)c1cc(C(=C2CCN(C(=O)OC)CC2)c2cc(C)c(OC)c(C(=O)OC)c2)cc(C)c1OC [Methyl 4-(4,4-dimethoxy-3,3 - di(methoxycarbonyl) -5,5 - dimethyl - diphenylmethylene)piperidinecarboxylate] | > 100
COC(=O)CCCC(=O)N1CCC(=C(c2cc(Cl)c(OC)c(C(=O)OC)c2)c2cc(Cl)c(OC)c(C(=O)OC)c2)CC1 [Methyl 5-[4-{3,3-dichloro-4,4-dimethoxy-5,5-di(methoxycarbonyl)diphenylmethylene}piperidyl]-5-oxopentanoate] | > 100
COC(=O)CCCC(=O)N1CCC(=C(c2cc(C)c(OC)c(C(=O)OC)c2)c2cc(C)c(OC)c(C(=O)OC)c2)CC1 [Methyl 5-[4-{4,4-dimethoxy-4,4-bis(methoxycarbonyl)-5,5-(dimethyl)diphenylmethylene}piperidyl]-5-oxopentanoate] | > 100
CCOC(=O)N1CCC(=C(c2cc(Cl)c3c(c2)C(=O)OC(C)(C)O3)c2cc(Cl)c3c(c2)C(=O)OC(C)(C)O3)CC1 [ethyl 4-[bis(8-chloro-2,2-dimethyl-4-oxo-2,4-dihydro-1,3-benzodioxin-6-yl)methylidene]piperidine-1-carboxylate] | > 100
CCOC(=O)N1CCC(=C(c2cc(C)c(OC)c(C(=O)OC)c2)c2cc(C)c(OC)c(C(=O)OC)c2)CC1 [ethyl 4-{bis[4-methoxy-3-(methoxycarbonyl)-5-methylphenyl]methylidene}piperidine-1-carboxylate] | > 100
COC(=O)c1cc(C(=C2CCN(C(=O)OC)CC2)c2cc(Cl)c(OC)c(C(=O)OC)c2)cc(Cl)c1OC [methyl 4-{bis[3-chloro-4-methoxy-5-(methoxycarbonyl)phenyl]methylidene}piperidine-1-carboxylate] | > 100
COC(=O)N1CCC(=C2c3ccccc3C=Cc3ccccc32)CC1 [methyl 4-{tricyclo[9.4.0.0^{3,8}]pentadeca-1(11),3,5,7,9,12,14-heptaen-2-ylidene}piperidine-1-carboxylate] | > 100
COC(=O)N1CCC(=C2c3ccccc3CCc3ccccc32)CC1 [methyl 4-{tricyclo[9.4.0.0^{3,8}]pentadeca-1(11),3,5,7,12,14-hexaen-2-ylidene}piperidine-1-carboxylate] | > 100
